Results published in US11331376B2, “Oral administration of unstable or poorly-absorbed drugs” (InnoPharmax, Inc., priority 2014, dated 2022).

Key:
[1] = system: STZ-induced diabetic mice; test: In vivo hypoglycemic study, blood glucose after oral gavage in STZ-induced diabetic mice; set-up: species or system male C57BL/6JNarl mice
Procedure: Diabetes was induced in male C57BL/6JNarl mice (8 weeks age, around 20 grams body weight) by two tail vein injections of streptozotocin (STZ) (first: 75 mg/kg, second: 150 mg/kg). Induction of diabetes in mice was verified by measuring glucose concentration in a blood sample that was obtained from the tail vein. […] An composition containing 200 IU/kg of insulin was administered by oral gavage to each of eight STZ-induced diabetic mice in three groups (i.e., 24 mice total). A first group each received free non-modified insulin suspended in about 160-230 microliters (depending on animal weight) of a 3.78% (w/w) NaHCO3 antacid solution. A second group each received insulin in the form of Formulation 1 suspended in about 160-230 microliters of phosphate-buffered saline (PBS). A third group received Formulation 1 insulin in the form of Formulation 1 suspended in about 160-230 microliters of a 3.78% (w/w) NaHCO3 antacid solution (i.e., a ten-fold dilution of Formulation 1). […] Blood samples were drawn from each mouse following gavage, and blood glucose levels in those samples were determined. […] Drug remaining in the formulation was analyzed, and in vivo potency was also assessed by administering insulin formulation into streptozotocin-induced diabetic mice and measuring blood glucose with a glucometer.

Procedure for Caco-2 cell monolayers: Caco-2 cells were cultured at 37±2 degrees Celsius in minimum essential medium (MEM) with Eagles salt and 1-glutamine supplemented with 15% fetal bovine serum, with 1% of non-essential amino acid, and with 1% of antibiotic-antimycotic in a incubator under a 5% carbon dioxide atmosphere to simulate intestinal lining cells.
At time zero, medium on one face of the cell monolayer was replaced by 0.5 milliliter of a solution that included one of Formulation 1, 2, or 3 or of insulin not incorporated into a SMEDDS-containing formulation. The solution was diluted ten-fold with medium (i.e., one part insulin-containing solution and nine parts buffer) prior to application to the monolayer. Thirty minutes following this replacement, insulin content at the basolateral face of the monolayer was analyzed by HPLC. The permeability coefficient (Papp) was calculated from the following equation: Papp=(dQ/dt)/(C0×area), where dQ/dt is the linear appearance rate obtained from the profile of the transported amount of the substrate against the time (measured in micrograms per second); C0 is a measured initial concentration in the donor compartment (measured in micrograms per milliliter), and “area” is the membrane surface area of the cell monolayer.

free insulin: non-modified human insulin not combined with a SMEDDS-containing composition
blood glucose levels at any time point ([1]; 200 IU/kg free insulin solution by oral gavage): No significant differences in the blood glucose levels | blood glucose levels over study period ([1]; 200 IU/kg oral gavage, free insulin in 3.78% NaHCO3 antacid solution): did not vary significantly | trans-monolayer transport of insulin (Caco-2 cell monolayers): No trans-monolayer transport
